Reference: US20040097728A1, “Method for producing anellated tetrahydro-{1h}-triazoles” (priority 2000, published 2004)

Columns and labels:
ABUTH = experiment: greenhouse herbicidal action, post-emergence treatment; format: in vivo, velvet leaf; conditions: post-emergence method, application rates of 7.8 and 3.9 g of a.s./ha
Description: (§1) The seeds of the test plants were sown separately for each species. For the post-emergence treatment, the test plants were first grown to a height of 3 to 15 cm, depending on the plant habit, and then treated with the active compounds which had been suspened or emulsified in water. To this end, the test plants were either sown directly and grown in the same containers, or they were first grown separately as seedlings and transplanted into the test containers a few days prior to the treatment. The application rates for the post-emergence treatments were 62.5, 31.2, 15.6, 7.8 and 3.9 g of a.s./ha. Depending on the species, the plants were kept at 10-25° C. or 20-35° C. The test period extended over 2 to 4 weeks. During this time, the plants were tended, and their response to the individual treatments was evaluated. Evaluation was carried out using a scale from 0 to 100. 100 means no emergence of the plants, or complete destruction of at least the above-ground parts, and O means no damage, or normal course of growth. The plants used in the greenhouse experiments were of the following species: [table]

AMARE = experiment: as above; format: in vivo, common amaranth; conditions: post-emergence method, application rates of 7.8 and 3.9 g of a.s./ha
Description: as §1

CHEAL = experiment: as above; format: in vivo, lambsquarters (goosefoot); conditions: post-emergence method, application rates of 7.8 and 3.9 g of a.s./ha
Description: as §1

PHBPU = experiment: as above; format: in vivo, common morning glory; conditions: post-emergence method, application rates of 7.8 and 3.9 g of a.s./ha
Description: as §1

| melting point | Compound | herbicidal activity against ABUTH (ABUTH) | herbicidal activity against AMARE (AMARE) | herbicidal activity against CHEAL (CHEAL) | herbicidal activity against PHPBU (PHBPU) |
| --- | --- | --- | --- | --- | --- |
|  | 2-[4-Chloro-2-fluoro-5-(2-propynyloxy)phenyl]-3-thiotetrahydro-1H-(1,2,4)triazolo[1,2-c][1,3,4]oxadiazin-1-one [Example 5] | very good | very good | very good | very good |
| 226 to 227 °C | C#CCOc1cc(-n2c(=O)n3n(c2=S)COCC3)c(F)cc1C#N [Example 75, 2-[4-Cyano-2-fluoro-5-(propargyloxy)phenyl]-3-thioxotetrahydro-1H-[1,2,4]-triazolo-[1,2-c][1,3,4]-oxadiazin-1-one] |  |  |  |  |
